In patent US20240082424A1, “CLATHRATE IN WHICH EQUOL IS INCLUDED IN CYCLODEXTRIN, EQUOL-ABSORBENT COMPOSITION CONTAINING SAID CLATHRATE, AND PRODUCTION METHOD THEREFOR” (DAICEL CORPORATION, priority 2020, published 2024):
In brackets after ≈: the same amount, converted by molar mass.

How the values were obtained:
[1] = Solubility test (equol concentration dissolved in water); format: physicochemical; settings: thermodynamic from solid; 300 mg dried product A-1 or 10 mg equol in 10 mL water, stirred at room temperature 2 hours, 0.2-μm filtered; read-out: concentration of equol in the solution (solubility in water)
Description: The dried product A-1 containing an equol clathrate prepared in <<Preparation of Equol Clathrate>> described above was subjected to a solubility test. As a control, a solubility test was performed on equol (available from LC Laboratories) alone.
Specifically, solubility tests were conducted under the following conditions.
300 mg of the dried product A-1 containing an equol clathrate was weighed and mixed with 10 mL of water. Then, the mixture was stirred at room temperature for 2 hours. This liquid was filtered through a 0.2-μm filter, resulting in a solution B-1 of the dried product A-1 containing an equol clathrate. The equol concentration of the solution B-1 was analyzed.
Meanwhile, 10 mg of equol (available from LC Laboratories) was weighed and subjected to the same operation, resulting in a liquid C-1 containing equol alone. The concentration of equol dissolved in the solution C-1 was analyzed.

[2] = Pharmacokinetics (PK) analysis by oral administration in rats; format: in vivo, Crl:CD (SD) rats; settings: single oral dose, rat plasma, 0.5% CMC suspension, equol clathrate 100 mg/kg, equol 6.3 mg/kg
Description: The equol clathrate A-1 prepared in <<Preparation of Equol Clathrate>> was subjected to pharmacokinetics (PK) analysis using 6-week-old Crl:CD (SD) rats by oral administration. As a control, pharmacokinetics (PK) analysis of equol (available from LC Laboratories) alone was also performed.
Specifically, the administered dose of the equol clathrate A-1 was 100 mg/kg, whereas the dose of equol (available from LC Laboratories) was 6.3 mg/kg, an amount considered to be equivalent to 100 mg/kg of the equol clathrate A-1.
The administered dose of the equol clathrate A-1 and the administered dose of equol were each administered as a single oral dose to 3 animals/group. The test substance used for the administration sample was suspended in 0.5% CMC aqueous solution, and the administered volume was 10 mL/kg.
PK was measured using plasma, and blood was collected at 0 min, 30 min, 1 h, 2 h, 6 h, 12 h, and 24 h. After 24 hours of blood collection, the rats were euthanized.
Note that, in Table 2, “Cmax” means maximum blood concentration, “Tmax” means time to reach Cmax, and “AUC0-24” means area.

solubility at 2 h [1]: 100 µg/mL (≈ 413 µM)
Cmax ([2]; Crl:CD (SD), read-out: Cmax (maximum blood concentration)): 41.6 ng/mL
AUC0-24 (area) [2]: 363 ng·h/mL
SMILES: Oc1ccc([C@H]2COc3cc(O)ccc3C2)cc1 [equol]
